Experimental data published in article PMC4111740, “Ligand-Based Pharmacophore Modeling and Virtual Screening for the Discovery of Novel 17β-Hydroxysteroid Dehydrogenase 2 Inhibitors” (Journal of Medicinal Chemistry, 2014).
Entries after “also recorded” stand apart in the source; their conditions may differ. Read-outs that look alike come from different tables or passages of the source.

How the values were obtained:
17β-HSD2 [1] = target: T1, 17β-HSD2 (Homo sapiens, UniProt P37059); assay: 17β-HSD2 activity in lysates of transfected HEK-293 cells (cell-free, radiolabeled estradiol); assay type: biochemical; details: for 17β-HSD2 Activity (in words): Table S2, virtual screening hits, tested at 20 μM in lysates
T1 construct: expressed in transfected cells; host or cells: HEK-293 (transient, calcium phosphate), lysate
T1 sequence (P37059 1-387): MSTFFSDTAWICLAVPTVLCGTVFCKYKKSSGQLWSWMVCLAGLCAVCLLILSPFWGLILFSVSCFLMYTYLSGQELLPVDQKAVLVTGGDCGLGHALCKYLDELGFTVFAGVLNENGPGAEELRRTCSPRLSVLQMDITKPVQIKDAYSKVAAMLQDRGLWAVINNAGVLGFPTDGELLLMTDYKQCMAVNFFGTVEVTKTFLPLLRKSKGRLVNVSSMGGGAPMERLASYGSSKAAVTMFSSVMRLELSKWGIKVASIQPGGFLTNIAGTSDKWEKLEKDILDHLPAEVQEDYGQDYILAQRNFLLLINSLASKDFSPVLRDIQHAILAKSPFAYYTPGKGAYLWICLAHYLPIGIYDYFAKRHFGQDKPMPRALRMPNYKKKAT
Description: Next, the 17β-HSD2 inhibitory activities of the chosen hits were evaluated in a cell-free assay. The activities were first determined at an inhibitor concentration of 20 μM using lysates of transfected HEK-293 cells. In all experiments, vehicle was included as negative control and N-(3-methoxyphenyl)-N-methyl-5-m-tolylthiophene-2-carboxamide (compound 19 from ref ([26])) as positive control.
HEK-293 cells were transfected by the calcium phosphate precipitation method with plasmids for human 17β-HSD1, 17β-HSD2, or 11β-HSD2. Cells were cultivated for 48 h, washed with phosphate-buffered saline, and centrifuged for 4 min at 150g. After removal of the supernatants, cell pellets were snap frozen in dry ice and stored at −80 °C until further use.
Lysates of human embryonic kidney cells (HEK-293) expressing either 17β-HSD1 or 17β-HSD2 were incubated for 10 min at 37 °C in TS2 buffer in a final volume of 22 μL containing either solvent (0.2% DMSO/chloroform) or the inhibitor at the respective concentration. N-(3-Methoxyphenyl)-N-methyl-5-m-tolylthiophene-2-carboxamide (compound 19 in ref ([26])) and apigenin[50] were used as positive controls for 17β-HSD1 and 17β-HSD2, respectively, in all experiments. 17β-HSD1 activity was measured in the presence of 190 nM unlabeled estrone, 10 nM radiolabeled estrone, and 500 μM NADPH. In contrast, 17β-HSD2 activity was determined in the presence of 190 nM unlabeled estradiol, 10 nM radiolabeled estradiol, and 500 μM NAD^+. Reactions were stopped after 10 min by adding an excess of unlabeled estradiol and estrone (1:1, 2 mM in methanol). Possible promiscuous enzyme inhibition by aggregate formation of the chemicals was excluded by measuring the inhibition of the enzyme activity by the compounds in the presence of 0.1% Triton X-100.[36] […] To exclude irreversible inhibition by the compounds investigated,[35] cell lysates were preincubated with the compounds for 0, 10, and 30 min, respectively, followed by measurement of the enzyme activity. […] The steroids were separated by TLC, followed by scintillation counting and calculation of substrate concentration. Data were collected from at least three independent measurements.

17β-HSD2 [2] = target: T1, 17β-HSD2; assay: 17β-HSD2 activity in intact transfected HEK-293 cells; assay type: cell-based; details: intact HEK-293 cells
Description: (§1) Human embryonic kidney cells (HEK-293) were cultivated in DMEM containing 4.5 g/L glucose, 10% fetal bovine serum, 100 U/mL penicillin, 0.1 mg/mL streptomycin, 1× MEM nonessential amino acids, and 10 mM HEPES buffer, pH 7.4. The cells were incubated at 37 °C until 80% confluency. The cells were transfected using the calcium phosphate method with expression plasmids for 17β-HSD2 and 17β-HSD3. After 24 h, the cells were trypsinized and seeded on poly-L-lysine-coated 96-well plates (15 000 cells/well).
(§2) The inhibitory activities were measured 24 h after seeding as follows: old medium was aspirated and replaced by 30 μL of charcoal-treated DMEM (cDMEM). Ten microliters of inhibitor dissolved in cDMEM into the respective concentration was added, and mixtures were preincubated at 37 °C for 20 min. 17β-HSD2 inhibitory activities were measured in the presence of 190 nM unlabeled estradiol and 10 nM radiolabeled estradiol. N-(3-Methoxyphenyl)-N-methyl-5-m-tolylthiophene-2-carboxamide (compound 19 in ref ([26])) was used as positive control. The reaction mixtures were incubated for 20 min, and the reactions were stopped by adding an excess of estradiol and estrone (1:1, 2 mM in methanol) to the mixture.

17β-HSD3 = target: T2, 17β-HSD3 (Homo sapiens, UniProt P37058); assay: 17β-HSD3 activity in intact transfected HEK-293 cells; assay type: cell-based; details: for 17β-HSD3 inhibition (in words): intact cells; for 17β-HSD3 intact inhibition class (n.i.): rest activity at 20 μM, Table 3
T2 construct: expressed in transfected cells; host or cells: HEK-293 (transient, calcium phosphate), intact cells
T2 sequence (P37058 1-310): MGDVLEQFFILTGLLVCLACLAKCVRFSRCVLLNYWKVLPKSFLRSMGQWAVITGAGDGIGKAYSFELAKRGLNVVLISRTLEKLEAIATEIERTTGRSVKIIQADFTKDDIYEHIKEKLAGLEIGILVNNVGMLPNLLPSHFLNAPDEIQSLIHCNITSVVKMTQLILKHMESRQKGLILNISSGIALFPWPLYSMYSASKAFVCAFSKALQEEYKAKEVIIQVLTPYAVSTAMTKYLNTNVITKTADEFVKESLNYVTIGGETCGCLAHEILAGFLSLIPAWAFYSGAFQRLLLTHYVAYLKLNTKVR
Description: as §1, §2
17β-HSD3 inhibitory activities were measured in the presence of 190 nM unlabeled androstenedione and 10 nM radiolabeled androstenedione. Benzophenone-1 was used as positive control. The reaction mixtures were incubated for 30 min, and the reactions were stopped by adding an excess of androstenedione and testosterone (1:1, 2 mM in methanol). The steroids were separated by TLC, followed by scintillation counting and calculation of substrate concentration. Data was obtained from three independent measurements.

17β-HSD2 [3] = details: Table S1, cited from earlier work; for IC50: read-out: IC50 17β-HSD2 (test set)
11β-HSD1 = target: T3, 11β-HSD1 (Homo sapiens, UniProt P28845); assay: 11β-HSD1 activity in lysates of stably transfected cells; assay type: biochemical; details: lysates
T3 construct: expressed in transfected cells
Description: The methods to determine 11β-HSD1 and -2 activity were performed as described previously.[64] Briefly, lysates of stably transfected cells, expressing either 11β-HSD1 or 11β-HSD2, were incubated for 10 min at 37 °C in TS2 buffer in a final volume of 22 μL containing either solvent (0.2% DMSO) or the inhibitor at the respective concentration. The nonselective 11β-HSD inhibitor glycyrrhetinic acid was used as positive control. Activity measurements of 11β-HSD1 were performed with 190 nM unlabeled cortisone, 10 nM radiolabeled cortisone, and 500 μM NADPH. To measure 11β-HSD2 activity, lysates were incubated with 40 nM unlabeled cortisol, 10 nM radiolabeled cortisol, and 500 μM NAD^+. Reactions were stopped after 10 min by adding an excess of unlabeled cortisone and cortisol (1:1, 2 mM in methanol). The steroids were separated by TLC, followed by scintillation counting and calculation of substrate concentration. Data were collected from at least three independent measurements.

T3 sequence (P28845 whole entry): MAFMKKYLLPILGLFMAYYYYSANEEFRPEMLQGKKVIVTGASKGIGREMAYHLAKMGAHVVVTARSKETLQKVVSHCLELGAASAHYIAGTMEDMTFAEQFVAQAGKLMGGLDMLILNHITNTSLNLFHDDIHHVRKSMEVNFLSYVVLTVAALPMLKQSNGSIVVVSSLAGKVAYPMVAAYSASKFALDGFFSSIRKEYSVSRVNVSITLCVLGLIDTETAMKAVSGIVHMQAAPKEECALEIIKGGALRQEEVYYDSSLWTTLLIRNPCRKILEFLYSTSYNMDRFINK

COc1ccccc1NC(=O)COc1ccc(/C=c2/sc3n(c2=O)CCN=3)cc1 [AH-487/15020191]
17β-HSD2 Activity (in words) (17β-HSD2 [1]): Inactive

Oc1cccc(C(O)CNCc2ccncc2)c1 (stereo not drawn) [AN-465/42246299]
17β-HSD2 Activity (in words) (17β-HSD2 [1]): Inactive

O=C(CSc1nccc(O)n1)Nc1cccc2nsnc12 [Compound 15]
17β-HSD2 inhibition in intact cells (in words) (17β-HSD2 [2]): concentration-dependently inhibited 17β-HSD2
less potent than the most active hit (17β-HSD2) (17β-HSD2 [1]; relative to compound 12): 5 fold

O=C(Cn1nnc2ccccc21)c1ccc(-c2ccccc2)cc1 [AK-918/11592002]
17β-HSD2 Activity (in words) (17β-HSD2 [1]): Inactive

Cc1cc(C)c(OCC(=O)N/N=C/c2ccc(O)cc2O)c(Br)c1 [Compound 11]
17β-HSD2 inhibition in intact cells (in words) (17β-HSD2 [2]): concentration-dependently inhibited 17β-HSD2
17β-HSD3 inhibition (in words) (17β-HSD3): more active against 17β-HSD3 than 17β-HSD2

Cc1ccccc1/C=N/NC(=O)Cn1nnc2ccccc21 [AK-968/11367105]
17β-HSD2 Activity (in words) (17β-HSD2 [1]): Inactive

O=C(COc1ccc(-c2ccccc2)cc1)Nc1ccccc1C(=O)NC1CCCCC1 [AN-329/42613159]
17β-HSD2 Activity (in words) (17β-HSD2 [1]): Inactive

COC(=O)c1cc(NC(=O)c2ccc(OC)cc2)ccc1O [AN-652/43163172]
17β-HSD2 Activity (in words) (17β-HSD2 [1]): Inactive

Cc1ccc(NS(=O)(=O)c2cccc(Br)c2)cc1O [Compound 24]
17β-HSD3 intact inhibition class (n.i.) (17β-HSD3): n.i

C[C@]12CC[C@@H]3c4ccc(O)cc4C(=O)C[C@H]3[C@@H]1CCC2=O [1476-34-2]
17β-HSD2 enzyme inhibition (test set) (17β-HSD2 [3]; at 10 µM, ref SI 7, 10): < 10%

O=C(CSc1ccccc1)Nc1ccc(C(=O)Nc2ccc(O)cc2)cc1 [AN-979/42723474]
17β-HSD2 Activity (in words) (17β-HSD2 [1]): Inactive

COc1ccc(C(=O)COC(=O)c2ccc(O)cc2)cc1 [AK-918/12108002]
17β-HSD2 Activity (in words) (17β-HSD2 [1]): Inactive

Cc1cc(C)c(S(=O)(=O)Nc2cccc(O)c2)cc1C [Compound 16]
17β-HSD3 inhibition (in words) (17β-HSD3): weak 17β-HSD3 inhibitors

CN(C)Cc1ccccc1Sc1ccc(O)cc1O [AE-641/30109032]
17β-HSD2 Activity (in words) (17β-HSD2 [1]): Inactive

Oc1ccc(-c2cn3cc(C(F)(F)F)ccc3n2)cc1 [AQ-776/42801516]
17β-HSD2 Activity (in words) (17β-HSD2 [1]): Inactive

COc1ccc(OC)c(NC(=O)C(C)Oc2ccc(-c3ccccc3)cc2)c1 (stereo not drawn) [AN-329/42958201]
17β-HSD2 Activity (in words) (17β-HSD2 [1]): Inactive

O=S(=O)(Nc1cccc(O)c1)c1ccc(Br)cc1 [Compound 21]
17β-HSD3 intact inhibition class (n.i.) (17β-HSD3): n.i

O=C(Nc1ccc(O)cc1)c1ccc2c(c1)C(=O)N(Cc1ccco1)C2=O [AN-979/41971109]
17β-HSD2 Activity (in words) (17β-HSD2 [1]): Inactive

CN1C(=O)C[C@H](c2ccccc2)[C@@H]1[C@H](O)c1ccc(-c2cccnc2)s1 [Compound 3]
IC50 (17β-HSD2 [3]; ref SI 1, 2, 4): 50 nM

CS(=O)(=O)Nc1ccc(-c2ccc(O)cc2)cc1 [319015-65-1]
17β-HSD2 enzyme inhibition (test set) (17β-HSD2 [3]; at 1 µM, ref SI 1, 2, 3, 5, 6): < 10%

Cc1cccc(-c2ccc(C(=O)N(C)Cc3cccc(O)c3)s2)c1 [Compound 2]
IC50 (17β-HSD2 [3]; ref SI 1, 2, 4): 164 nM

COc1ccccc1NCC(=O)N/N=C/c1sccc1C [AN-329/11413636]
17β-HSD2 Activity (in words) (17β-HSD2 [1]): Inactive

COc1ccc(S(=O)(=O)Nc2cccc(O)c2)c2c1CCCC2 [Compound 23]
11β-HSD1 versus 17β-HSD2 potency (in words) (11β-HSD1): almost equipotent toward 17β-HSD2 and 11β-HSD1; also recorded: equipotent 17β-HSD2 and 11β-HSD1 inhibitors
17β-HSD3 intact inhibition class (n.i.) (17β-HSD3): n.i

COc1ccccc1NC(=O)CCC(=O)OC(C)C(=O)c1ccccc1 (stereo not drawn) [AG-690/15435864]
17β-HSD2 Activity (in words) (17β-HSD2 [1]): Inactive

CCCC(=O)Nc1ccc(C(=O)NCc2ccc(OC)cc2)cc1 [AJ-292/42647512]
17β-HSD2 Activity (in words) (17β-HSD2 [1]): Inactive

O=S(=O)(Nc1ccc(O)c(Cl)c1)c1ccc(F)cc1 [Compound 13]
17β-HSD2 inhibition in intact cells (in words) (17β-HSD2 [2]): concentration-dependently inhibited 17β-HSD2
17β-HSD3 inhibition (in words) (17β-HSD3): equipotent toward these two enzymes

O=C(Cn1nnc2ccccc21)N/N=C/c1ccccc1F [AG-205/07947037]
17β-HSD2 Activity (in words) (17β-HSD2 [1]): Inactive

COc1cc(C(=O)Nc2cc(C(F)(F)F)ccc2N2CCOCC2)ccc1O [AP-906/41927951]
17β-HSD2 Activity (in words) (17β-HSD2 [1]): Inactive

O=C(COC(=O)c1ccc2c(c1)C(=O)N(c1cccc(O)c1)C2=O)c1ccccc1 [AK-918/37182008]
17β-HSD2 Activity (in words) (17β-HSD2 [1]): Inactive

Oc1ccc(-c2ccc3c(O)cccc3c2)cc1 [Compound 1]
IC50 (17β-HSD2 [3]; ref SI 1, 2, 4): 302 nM

COc1cc(C=Nc2ccc(OC(F)(F)F)cc2)ccc1O [AN-329/11450193]
17β-HSD2 Activity (in words) (17β-HSD2 [1]): Inactive

CC(=O)Nc1cccc(-c2ccc(O)cc2)c1 [462660-26-0]
17β-HSD2 enzyme inhibition (test set) (17β-HSD2 [3]; at 1 µM, ref SI 1, 2, 3, 5, 6): < 10%

CCn1c(Cc2ccccc2)nnc1SCC(=O)Nc1ccccc1OC [AG-690/40750820]
17β-HSD2 Activity (in words) (17β-HSD2 [1]): Inactive

Oc1cccc(-c2ccccc2)c1 [580-51-8]
17β-HSD2 enzyme inhibition (test set) (17β-HSD2 [3]; at 1 µM, ref SI 1, 2, 3, 5, 6): < 10%

COc1ccc(-c2ccc(C(=O)N(C)Cc3cccc(O)c3)s2)cc1 [Compound 7]
IC50 (17β-HSD2 [3]; ref SI 1, 2, 4): 161 nM

COc1cccc(-c2ccc(C(=O)N(C)Cc3cccc(O)c3)s2)c1F [Compound 6]
IC50 (17β-HSD2 [3]; ref SI 1, 2, 4): 61 nM

CN1C(=O)C[C@H](c2ccccc2F)[C@@H]1[C@H](O)c1ccc(-c2ccccc2)s1 [Compound 8]
IC50 (17β-HSD2 [3]; ref SI 1, 2, 4): 10 nM

Oc1cccc(-c2ccnc(-c3ccc(Cl)s3)c2)c1 [Compound 4]
IC50 (17β-HSD2 [3]; ref SI 3): 470 nM
